The text below walks through data of patent US11028090B2 (Dong Wha Pharm. Co., Ltd., priority 2017, dated 2021).

A word on the IC50: it is the concentration that inhibits the measured activity by half.

The structures appear in SMILES notation. Where a name gives a salt, the structure may show the parent alone. Read-outs that look alike come from different tables or passages of the source.

The target of the assay is BRD4 (BD1+BD2) bromodomain (Homo sapiens (Human), UniProt O60885). Put plainly: BRD4 binding inhibition (AlphaScreen, GST-BRD4 vs tetraacetylated histone H4 peptide). The protocol:
A mixture comprising 100 nM GST-BRD4 (BD1+BD2) and 100 nM biotinylated acetyl-histone H4 (Lys5,8,12,16) peptide was prepared in assay buffer (50 mM HEPES pH 7.4; 25 mM NaCl; 0.05% Tween 20; 0.1% bovine serum albumin (BSA); 10 mM dithiothreitol (DTT)). After adding 6 μl of the mixture to the diluent, 6 μl of the pre-mixed AlphaLISA Glutathione Acceptor Beads and AlphaScreen Streptavidin Donor Beads (PerkinElmer, 10 μg/ml in assay buffer, respectively) was added thereto. The samples were incubated in the dark at room temperature for 30 minutes (shaking at 300 rpm). Then, the signals were measured with PerkinElmer Envision HTS Multilabel Reader using an alpha screen protocol of PerkinElmer. Each plate contained the negative control in which biotinylated acetyl-histone H4 peptide and GST-BRD4 (BD1+BD2) were replaced by assay buffer. In the case of using the software GraphPad Prism for calculation, the negative control point was input as a low standard value. The positive control (probe molecule l-BET762 containing protein/peptide mixture) proceeded to pipetting.

The mark [1] stands for this setting: GST-BRD4 (BD1+BD2) vs biotinylated acetyl-histone H4 peptide, AlphaScreen, read-out: BRD4 IC50.
The mark [2] stands for this setting: GST-BRD4 (BD1+BD2) / biotinylated acetyl-histone H4 (Lys5,8,12,16) peptide, read-out: IC50, BRD4 binding inhibition.

For `Cc1nnc2c(NCCCCNC(=O)C(C)C)nc3cc(Cl)c(Cl)cc3n12` [Example 29, N-[4-(7,8-dichloro-1-methyl-[,2,4]triazolo[4,3-a]quinoxaline-4-ylamino)-butyl]-isobutyramide], under setting [1], the concentration for half-maximal inhibition (IC50) is 98 nM.

`Cc1nnc2c(NCCCCNC(=O)CC(C)C)nc3cc(Cl)c(Cl)cc3n12` [Example 30, N-[4-(7,8-dichloro-1-methyl-[1,2,4]triazolo[4,3-a]quinoxaline-4-ylamino)-butyl]-3-methyl-butyramide]: the IC50 under setting [2] was at most 10 nM.

For the molecule `Cc1nnc2c(NCCCCNC(=O)c3ccccc3)nc3cc(Cl)c(Cl)cc3n12` [Example 31, N-[4-(7,8-dichloro-1-methyl-[1,2,4]triazolo[4,3-a]quinoxaline-4-ylamino)-butyl]-benzamide], the 50% inhibitory concentration (IC50) was at most 50 nM under setting [2] and 31 nM under setting [1].

Take `Cc1nnc2c(NCCCCNC(=O)c3ccccc3Cl)nc3cc(Cl)c(Cl)cc3n12` [Example 32]: under setting [1], the half-maximal inhibitory concentration (IC50) was 89 nM.

As for `Cc1cc2nc(NCCCCNC(=O)OC(C)(C)C)c3nnc(C)n3c2cc1C` [Example 34, [4-(1,7,8-trimethyl-[1,2,4]triazolo[4,3-a]quinoxaline-4-ylamino)-butyl]-carbamic acid-tert-butylester], the IC50 under setting [1] was found to be 81 nM.

Consider `Cc1nnc2c(NCCCCNC(=O)[C@H](O)C(C)C)nc3cc(F)c(F)cc3n12` [Example 38, N-[4-(7,8-difluoro-1-methyl-[1,2,4]triazolo[4,3-a]quinoxaline-4-ylamino)-butyl]-2-(R)-hydroxy-3-methyl-butyramide], for which, under setting [1], the IC50 stood at 97 nM.

With `Cc1ccc2nc(NCCCCNC(=O)OC(C)(C)C)c3nnc(C)n3c2c1` [Example 40, [4-(1,8-dimethyl-[1,2,4]triazolo[4,3-a]quinoxaline-4-ylamino)-butyl]-carbamic acid-tert-butylester], the IC50 under setting [1] was found to be 69 nM.

For `Cc1ccc2nc(NCCCCNC(=O)NC(C)(C)C)c3nnc(C)n3c2c1` [Example 44, 1-tert--butyl-3-[4-(1,8-dimethyl-[1,2,4]triazolo[4,3-a]quinoxaline-4-ylamino)-butyl]-urea], the IC50 under setting [1] was determined as 72 nM.

Take `Cc1ccc2nc(NCCCCNC(=O)c3ccccc3)c3nnc(C)n3c2c1` [Example 45, N-[4-(1,8-dimethyl-[1,2,4]triazolo[4,3-a]quinoxaline-4-ylamino)-butyl]-benzamide]: under setting [2], the IC50 is at most 50 nM.

In the case of `Cc1ccc2nc(NCCCCNC(=O)Nc3ccccc3)c3nnc(C)n3c2c1` [Example 46, 1-[4-(1,8-dimethyl-[1,2,4]triazolo[4,3-a]quinoxaline-4-ylamino)-butyl]-3-phenyl-urea], under setting [1], the 50% inhibitory concentration (IC50) is 73 nM.

Take `Cc1nnc2c(NCCCCNC(=O)OC(C)(C)C)nc3ccc(F)cc3n12` [Example 47, [4-(8-fluoro-1-methyl-[1,2,4]triazolo[4,3-a]quinoxaline-4-ylamino)-butyl]-carbamic acid-tert-butylester]: the IC50 reads like this: under setting [2], at most 50 nM; under setting [1], 42 nM.

Turning to `Cc1nnc2c(NCCCCNC(=O)c3ccccc3)nc3ccc(F)cc3n12` [Example 51, N-[4-(8-fluoro-1-methyl-[1,2,4]triazolo[4,3-a]quinoxaline-4-ylamino)-butyl]-benzamide], the IC50 under setting [2] is at most 50 nM.

Regarding `Cc1nnc2c(NCCCCNC(=O)NC(C)(C)C)nc3ccc(F)cc3n12` [Example 52, 1-tert-butyl-3-[4-(8-fluoro-1-methyl-[1,2,4]triazolo[4,3-a]quinoxaline-4-ylamino)-butyl]-urea], under setting [1], the IC50 was found to be 70 nM.

As for `Cc1nnc2c(NCCCCNC(=O)Nc3ccccc3)nc3ccc(F)cc3n12` [Example 53, 1-[4-(8-fluoro-1-methyl-[1,2,4]triazolo[4,3-a]quinoxaline-4-ylamino)-butyl]-3-phenyl-urea], the IC50 under setting [1] came out at 60 nM.

In the case of `Cc1nnc2c(NCCCCNC(=O)OC(C)(C)C)nc3ccc(Cl)cc3n12` [Example 54, [4-(8-chloro-1-methyl-[1,2,4]triazolo[4,3-a]quinoxaline-4-ylamino)-butyl]-carbamic acid-tert-butylester], the IC50 by setting is: under setting [2], at most 50 nM; under setting [1], 50 nM.

`COCC(=O)NCCCCNc1nc2cc(OC)c(OC)cc2n2c(C)nnc12` [Example 80, N-[4-(7,8-dimethoxy-1-methyl-[1,2,4]triazolo[4,3-a]quinoxaline-4-ylamino)-butyl]-2-methoxy-acetamide]: the IC50 runs as follows: under setting [2], at most 50 nM; under setting [1], 28 nM.

As to `COc1cc2nc(NCCCCNC(=O)[C@H](O)C(C)C)c3nnc(C)n3c2cc1OC` [Example 82, N-[4-(7,8-dimethoxy-1-methyl-[1,2,4]triazolo[4,3-a]quinoxaline-4-ylamino)-butyl]-2-(R)-hydroxy-3-methyl-butyramide], the half-maximal inhibitory concentration (IC50) reads like this: under setting [2], at most 50 nM; under setting [1], 12 nM.

For the molecule `COc1cc2nc(NCCCCNC(=O)COC(C)=O)c3nnc(C)n3c2cc1OC` [Example 87], the IC50 reads like this: under setting [2], at most 50 nM; under setting [1], 27 nM.

Take `CCNC(=O)NCCCCNc1nc2cc(OC)c(OC)cc2n2c(C)nnc12` [Example 89, 1-[4-(7,8-dimethoxy-1-methyl-[1,2,4]triazolo[4,3-a]quinoxaline-4-ylamino)-butyl]-3-ethyl-urea]: the IC50 reads like this: under setting [2], at most 50 nM; under setting [1], 47 nM.

Consider `COc1cc2nc(NCCCCNC(=O)N3CCOCC3)c3nnc(C)n3c2cc1OC` [Example 92, morpholine-4-carboxylic acid-[4-(7,8-dimethoxy-1-methyl-[1,2,4]triazolo[4,3-a]quinoxaline-4-ylamino)-butyl]-amide], for which the concentration for half-maximal inhibition (IC50) under setting [2] was at most 50 nM and the 50% inhibitory concentration (IC50) under setting [1] is 41 nM.

Consider `COc1cc2nc(NCCCCNC(=O)Nc3ccccc3)c3nnc(C)n3c2cc1OC` [Example 94], for which the IC50 under setting [1] was found to be 57 nM.

`COc1cc2nc(NCCCCNC(=O)c3ccc(Cl)cc3)c3nnc(C)n3c2cc1OC` [Example 100, 4-chloro-N-[4-(7,8-dimethoxy-1-methyl-[1,2,4]triazolo[4,3-a]quinoxaline-4-ylamino)-butyl]-benzamide]: the IC50 under setting [1] came out at 69 nM.

`COc1cc2nc(NCCCCNC(=O)SC(C)C)c3nnc(C)n3c2cc1OC` [Example 110, [4-(7,8-dimethoxy-1-methyl-[1,2,4]triazolo[4,3-a]quinoxaline-4-ylamino)-butyl]-thiocarbamic acid-S-isopropylester]: the IC50 runs as follows: under setting [2], at most 50 nM; under setting [1], 35 nM.

With `COc1cccc2c1nc(NCCCCN)c1nnc(C)n12` [Example 118, N^1-(6-methoxy-1-methyl-[1,2,4]triazolo[4,3-a]quinoxaline-4-yl)-butane-1,4-diamine dihydrochloride], the concentration for half-maximal inhibition (IC50) under setting [1] was 54 nM.

As to `COc1cccc2c1nc(NCCCCNC(=O)C(C)(C)C)c1nnc(C)n12` [Example 119, N-[4-(6-methoxy-1-methyl-[1,2,4]triazolo[4,3-a]quinoxaline-4-ylamino)-butyl]-2,2-dimethyl-propionamide], under setting [1], the IC50 was found to be 79 nM.

As for `COc1ccc2nc(NCCCCNC(=O)OC(C)(C)C)c3nnc(C)n3c2c1` [Example 121, [4-(8-methoxy-1-methyl-[1,2,4]triazolo[4,3-a]quinoxaline-4-ylamino)-butyl]-carbamic acid-tert-butylester], the half-maximal inhibitory concentration (IC50) under setting [1] was 55 nM.

As for `COc1ccc2nc(NCCCCNC(=O)C(C)(C)C)c3nnc(C)n3c2c1` [Example 123, N-[4-(8-methoxy-1-methyl-[1,2,4]triazolo[4,3-a]quinoxaline-4-ylamino)-butyl]-2,2-dimethyl-propionamide], the half-maximal inhibitory concentration (IC50) reads like this: under setting [2], at most 50 nM; under setting [1], 42 nM.
